Patent publication US20070274929A1, “ORAL COMPOSITION COMPRISING CHLORHEXIDINE AND MALTITOL OR ERYTHRITOL OR A MIXTURE THEREOF” (priority 2000, published 2007)

Test: Masking the bitterness of chlorhexidine, panel of trained taste assessors (sip-and-spit, labelled magnitude line scale)
Assay type: in vivo
Conditions: for difference of the bitterness of the CHXG/inhibitor mixture from the 0.1% CHXG reference (analysis of variance): ANOVA at the 5% level, reference 0.1% CHXG in 8% ethanol-water; for difference of the bitterness of the CHXG/inhibitor mixture from the 0.1% CHXG reference (analysis of variance) / % suppression of bitterness of 0.1% CHXG: n=18; for % suppression of bitterness of 0.1% CHXG: 8% w/w ethanol in water, reference bitterness set at 70 on line scale 0-100; for masking the bitter taste of chlorhexidine compared with xylitol: inhibitors at 2 & 4% w/w, 0.1% CHXG
Experimental: The efficacy of maltitol, erythritol and xylitol to mask the bitter taste of chlorhexidine digluconate (CHXG) was evaluated using a panel of trained taste assessors.
All test solutions were made up in still mineral water. All tasting sessions were carried out at room temperature (20° C.). Samples were made up w/v (unless otherwise specified) one day before tasting and stored in the refrigerator overnight, then allowed to equilibrate to room temperature the next day before serving.
Eighteen panellists volunteered for the study. The panellists were first screened for their taste acuity using basic identification ranking techniques. 0.20% sodium chloride, 0.054% citric acid, 0.8% sucrose, 0.04% caffeine and 0.15% potassium alum were used to determine their ability to sense and identify saltiness, sourness, sweetness, bitterness and astringency, respectively. The detection and identification thresholds for bitterness were then measured using eight increasing concentrations of quinine hydrochloride (over a range of 0-0.0012%). Panellists were also instructed to rank four random concentrations of caffeine in increasing order of bitterness intensity. A similar experiment was done using quinine hydrochloride. All panellists performed well in those tasks.
The screened panellists were then asked to assess the bitterness intensities of the chlorhexidine mixtures using a “Labelled magnitude line scale” (LMS) as defined by Green et al., Chemical Senses, 1996, 21, 323-334. Solutions were made up containing the bitter inhibitors, 0.1% w/w CHXG, 8% w/w ethanol in water. The following concentrations of inhibitors were used:
Two samples were presented at any one time, one of which was the reference (0.1% CHXG in 8% ethanol-water). Sample presentation was randomised and was duplicated during the course of the study.
The “sip-and-spit” method was used for tasting CHXG solutions. Panellists were instructed to sip 5 ml sample, swirl it around their mouth and spit it out immediately before judging its bitterness intensity. This technique was expected to take 3-4 seconds.
Panellists were instructed to taste the reference first and memorise its bitter intensity. This intensity was assigned the number 70 on the line scale marked 0-100. Panellists were asked to wait until they could no longer feel any bitterness in their mouths (approximately 10 min) before tasting the second solution, whose intensity they then ranked in proportion to the intensity of the reference on the same line scale. Panellists were provided with mineral water to cleanse their palates.
Analysis of Variance (ANOVA) at the 5% level of significance was performed using the EXCEL software to find out whether there were any significant differences between the CHXG reference and the CHXG/inhibitor mixtures. A Fisher Least Significant Difference (LSD) test (O'Mahony M, 1986, Sensory Evaluation of Food—Statistical Methods and Procedures, Marcel Dekker, Inc, New York) was carried out on those samples where a significant difference had been found, to identify which sample means differ from the reference.

[1] = inhibitor 2% w/w in 0.1% w/w CHXG
[2] = inhibitor 4% w/w in 0.1% w/w CHXG

Compound	difference of the bitterness of the CHXG/inhibitor mixture from the 0.1% CHXG reference (analysis of variance)	% suppression of bitterness of 0.1% CHXG [1]	% suppression of bitterness of 0.1% CHXG [2]	masking the bitter taste of chlorhexidine compared with xylitol
OC[C@@H](O)[C@@H](O)CO [Erythritol]	significantly different	29.2%	28.2%	more effective than xylitol
OC[C@@H](O)[C@@H](O[C@H]1O[C@H](CO)[C@@H](O)[C@H](O)[C@H]1O)[C@H](O)[C@@H](O)CO [Maltitol]	significantly different	26.9%	32.6%	more effective than xylitol
OC[C@@H](O)[C@H](O)[C@@H](O)CO [Xylitol, reference compound]		14.3%	13.6%	
